# Reference: patent publication US20160151337A1, “ANNELATED PYRROLES AND THEIR USE AS CRAC INHIBITORS” (Grünenthal GmbH, priority 2013, published 2016)
# What was measured:
# CRAC channel = molecular target: T1, CRAC channel (Homo sapiens, UniProt Q96D31); experiment: HEK Calcium Influx Assay (FLIPR), inhibition of store-operated Ca2+ entry after thapsigargin store depletion; type: cell-based; details: 10 μM compound, HEK293 cells, read-out: % inhib. [@ 10 μM] FLIPR
# T1 construct: endogenous in cells; host or cells: HEK293 (ECACC), untransfected
# Method in brief: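 HEK293 cells loaded with Calcium-4 dye in Ca2+-free HBS (pH 7.4), stores depleted with 2 μM thapsigargin for 10 min (100 μM EGTA); after 3 mM CaCl2 re-addition and 15 min steady-state, compounds added and FLIPR signal averaged 9.5–10 min post-dose. IC50 from 8-point 1:3.16 dilutions from 10 μM, normalised to DMSO and non-depleted wells.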
# [1] = system: Interleukin-2 (IL-2) production/release in Jurkat T cells; experiment: Jurkat IL-2 Production Assay (PHA-stimulated, IL-2 AlphaLisa); type: cell-based; details: Homo sapiens, PHA 15 μg/ml, 22 h, inhibition of IL-2 production
# Description: The effect of compounds of the invention on Interleukin-2 (IL-2) production/release was tested in the Jurkat T cell line (ECACC) clone E6-1.
# Jurkat T cells were cultured in DMEM/F12/Glutamax (Gibco) containing 10% FCS (Gibco), and maintained at 37° C., 5% CO2. Cells were split twice a week [5*10^6 (Mon-Thu) and 1*10^7 (Thu-Mon) cells/50 ml medium in 1-175 ZK culture flasks, respectively].
# Prior to experiment, cells were seeded on 96 well plates (Cellstar 96 Well; Cat No. 655180, Greiner bio-one) at a density of 5*10^5 cells/well in DMEM/F12/Glutamax (Gibco) containing 10% FCS (Gibco), and incubated for 60 min at 37° C., 5% CO2. Subsequently, compounds were added and cells were allowed to incubate for 30 min at 37° C., 5% CO2. Cells were then stimulated with 15 μg/ml Phyto-hemagglutinin (PHA; Sigma) for 22 hours at 37° C., 5% CO2.
# Before sampling of the supernatants, cells were spun down (200*g/5 min/RT). The amount of IL-2 released into the supernatant was quantified with the human IL-2 AlphaLisa kit (Perkin Elmer) according to manufacturer's instructions. Luminescence proximity measurements were carried out in the Synergy H4 reader (BioTek) employing the fluorescence setting of the reader (ex: 680/30 nm; em: 620/40 nm).
# Inhibition of IL-2 production/release in/from Jurkat T cells was quantified as follows: Zero percent inhibition (MAX) was defined as the [IL-2] determined in supernatants derived from cells to which PHA & DMSO-only had been added instead of compound. Hundred percent inhibition (MIN) was defined as the [IL-2] determined in supernatants derived from cells that had been pre-treated with 1 μM CyclosporineA (Sigma) before the addition of 15 μg/ml PHA.
# For routine IC50 determinations of compounds, 8 concentrations of a serial dilution (1:3.16) were tested, starting off from 10 μM.
# T1 sequence (Q96D31 whole entry): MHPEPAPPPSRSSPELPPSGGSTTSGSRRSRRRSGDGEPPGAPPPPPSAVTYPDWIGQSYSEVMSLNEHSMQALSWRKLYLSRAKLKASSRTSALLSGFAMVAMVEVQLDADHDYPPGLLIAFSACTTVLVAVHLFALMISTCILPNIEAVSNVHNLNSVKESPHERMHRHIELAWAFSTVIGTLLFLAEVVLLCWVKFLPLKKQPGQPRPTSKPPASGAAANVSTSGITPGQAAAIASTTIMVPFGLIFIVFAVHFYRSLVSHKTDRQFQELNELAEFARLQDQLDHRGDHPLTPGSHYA
Structure (SMILES),inhibition at 10 µM (CRAC channel) [%],IC50 [1] [µM]
"Cc1sc(-c2cccnc2)nc1N1CCc2[nH]c(-c3c(F)cccc3F)cc2C1=O [Example 1, 2-(2,6-Difluoro-phenyl)-5-(5-methyl-2-pyridin-3-yl-thiazol-4-yl)-1,5,6,7-tetrahydro-pyrrolo[3,2-c]pyridin-4-one]",50 to 70,1 to 5
"Cc1cc(C(F)(F)F)ncc1N1CCc2[nH]c(-c3c(F)cccc3F)cc2C1 [Example 73, 2-(2,6-Difluoro-phenyl)-5-[4-methyl-6-(trifluoromethyl)-pyridin-3-yl]-4,5,6,7-tetrahydro-1H-pyrrolo[3,2-c]pyridine]",> 70,< 0.5
"Cn1nc(C2(C(F)(F)F)CC2)cc1N1CCc2[nH]c(-c3c(F)cccc3F)cc2C1 [Example 123, 2-(2,6-Difluoro-phenyl)-5-[2-methyl-5-[1-(trifluoromethyl)-cyclopropyl]-2H-pyrazol-3-yl]-4,5,6,7-tetrahydro-1H-pyrrolo[3,2-c]pyridine]",> 70,0.5 to 1
"Cc1cc(C)c(-c2cc3c([nH]2)CCN(c2cnc(S(C)(=O)=O)cc2C)C3)cn1 [Example 92, 2-(4,6-Dimethyl-pyridin-3-yl)-5-(4-methyl-6-methylsulfonyl-pyridin-3-yl)-4,5,6,7-tetrahydro-1H-pyrrolo[3,2-c]pyridine]",> 70,1 to 5
"Cc1cc(S(C)(=O)=O)c(F)cc1N1CCc2[nH]c(C3CCCCC3)cc2C1 [Example 110, 2-Cyclohexyl-5-(5-fluoro-2-methyl-4-methylsulfonyl-phenyl)-4,5,6,7-tetrahydro-1H-pyrrolo[3,2-c]pyridine]",< 50,1 to 5
CNS(=O)(=O)c1ccc(N2CCc3[nH]c(C4CCCCC4)cc3C2)c(C)c1 [Example 129],< 50,1 to 5
"Fc1cccc(F)c1-c1cc2c([nH]1)CCN(c1cccc(C(F)(F)F)c1)C2 [Example 7, 2-(2,6-Difluoro-phenyl)-5-[3-(trifluoromethyl)phenyl]-4,5,6,7-tetrahydro-1H-pyrrolo[3,2-c]pyridine]",< 50,1 to 5
"CNS(=O)(=O)c1ccc(N2CCc3[nH]c(C4CCC(F)(F)CC4)cc3C2)c(C)c1 [Example 128, 4-[2-(4,4-Difluoro-cyclohexyl)-4,5,6,7-tetrahydro-1H-pyrrolo[3,2-c]pyridin-5-yl]-N,3-dimethyl-benzenesulfonic acid amide]",< 50,1 to 5
"COc1cc(C(F)(F)F)ncc1N1CCc2[nH]c(-c3c(F)cccc3F)cc2C1 [Example 112, 2-(2,6-Difluoro-phenyl)-5-[4-methoxy-6-(trifluoromethyl)-pyridin-3-yl]-4,5,6,7-tetrahydro-1H-pyrrolo[3,2-c]pyridine]",< 50,< 0.5
"Cc1sc(-c2cccnc2)nc1N1CCc2[nH]c(-c3c(F)cccc3F)cc2C1 [Example 2, 4-[2-(2,6-Difluoro-phenyl)-4,5,6,7-tetrahydro-1H-pyrrolo[3,2-c]pyridin-5-yl]-5-methyl-2-pyridin-3-yl-thiazole]",> 70,< 0.5
"Cc1cc(S(C)(=O)=O)ncc1N1CCc2[nH]c(-c3cccnc3C)cc2C1 [Example 83, 5-(4-Methyl-6-methylsulfonyl-pyridin-3-yl)-2-(2-methyl-pyridin-3-yl)-4,5,6,7-tetrahydro-1H-pyrrolo[3,2-c]pyridine]",> 70,1 to 5
"Cc1sc(-c2cccnc2)nc1N1CCc2[nH]c(-c3c(F)cccc3F)c(I)c2C1 [Example 66, 4-[2-(2,6-Difluoro-phenyl)-3-iodo-4,5,6,7-tetrahydro-1H-pyrrolo[3,2-c]pyridin-5-yl]-5-methyl-2-pyridin-3-yl-thiazole]",< 50,1 to 5
"Cn1nc(N2CCc3[nH]c(-c4c(F)cccc4F)cc3C2)cc1C1CC1 [Example 107, 5-(5-Cyclopropyl-1-methyl-1H-pyrazol-3-yl)-2-(2,6-difluoro-phenyl)-4,5,6,7-tetrahydro-1H-pyrrolo[3,2-c]pyridine]",> 70,1 to 5
"Cc1cc(S(C)(=O)=O)ncc1N1CCc2[nH]c(-c3cncc(F)c3C)cc2C1 [Example 96, 2-(5-Fluoro-4-methyl-pyridin-3-yl)-5-(4-methyl-6-methylsulfonyl-pyridin-3-yl)-4,5,6,7-tetrahydro-1H-pyrrolo[3,2-c]pyridine]",> 70,0.5 to 1
"Cc1sc(-c2ccncc2)nc1N1CCc2[nH]c(-c3c(F)cccc3F)cc2C1 [Example 24, 4-[2-(2,6-Difluoro-phenyl)-4,5,6,7-tetrahydro-1H-pyrrolo[3,2-c]pyridin-5-yl]-5-methyl-2-pyridin-4-yl-thiazole]",> 70,< 0.5
"COc1cc2c(cc1N1CCc3[nH]c(C4CCCCC4)cc3C1)CCS2(=O)=O [Example 103, 5-(2-Cyclohexyl-4,5,6,7-tetrahydro-1H-pyrrolo[3,2-c]pyridin-5-yl)-6-methoxy-2,3-dihydro-benzo[b]thiophene 1,1-dioxide]",< 50,< 0.5
"Cc1cc(S(C)(=O)=O)ncc1N1CCc2[nH]c(-c3c(F)cccc3F)c(F)c2C1 [Example 142, 2-(2,6-Difluoro-phenyl)-3-fluoro-5-(4-methyl-6-methylsulfonyl-pyridin-3-yl)-4,5,6,7-tetrahydro-1H-pyrrolo[3,2-c]pyridine]",> 70,< 0.5
"Cn1nc(C(F)(F)F)cc1N1CCc2[nH]c(-c3c(F)cccc3F)cc2C1 [Example 19, 2-(2,6-Difluoro-phenyl)-5-[2-methyl-5-(trifluoromethyl)-2H-pyrazol-3-yl]-4,5,6,7-tetrahydro-1H-pyrrolo[3,2-c]pyridine]",> 70,< 0.5
"Cc1cc(C#N)ccc1N1CCc2[nH]c(-c3c(F)cccc3F)cc2C1 [Example 12, 4-[2-(2,6-Difluoro-phenyl)-4,5,6,7-tetrahydro-1H-pyrrolo[3,2-c]pyridin-5-yl]-3-methyl-benzonitrile]",50 to 70,< 0.5
"CC(=O)c1ccc(N2CCc3[nH]c(-c4c(F)cccc4F)cc3C2)c(C)c1 [Example 82, 1-[4-[2-(2,6-Difluoro-phenyl)-4,5,6,7-tetrahydro-1H-pyrrolo[3,2-c]pyridin-5-yl]-3-methyl-phenyl]-ethanone]",> 70,0.5 to 1
"Cc1cc2c(cc1N1CCc3[nH]c(-c4c(F)cccc4F)cc3C1)OC(F)(F)O2 [Example 20, 5-(2,2-Difluoro-6-methyl-1,3-benzodioxol-5-yl)-2-(2,6-difluoro-phenyl)-4,5,6,7-tetrahydro-1H-pyrrolo[3,2-c]pyridine]",< 50,1 to 5
"Cc1cc(S(=O)(=O)N(C)C2CC2)ccc1N1CCc2[nH]c(-c3c(F)cccc3F)cc2C1 [Example 120, N-Cyclopropyl-4-[2-(2,6-difluoro-phenyl)-4,5,6,7-tetrahydro-1H-pyrrolo[3,2-c]pyridin-5-yl]-N,3-dimethyl-benzenesulfonic acid amide]",< 50,1 to 5
"Cc1cc(C(F)(F)F)ncc1N1CCc2[nH]c(C3CCCOC3)cc2C1 (stereo not shown) [Example 134, 5-[4-Methyl-6-(trifluoromethyl)-pyridin-3-yl]-2-tetrahydro-pyran-3-yl-4,5,6,7-tetrahydro-1H-pyrrolo[3,2-c]pyridine]",> 70,1 to 5
